The text below walks through data of ChEMBL document CHEMBL1201862, “PubChem BioAssay data set” (2004).

Data set [1] can be described thus: cytotoxicity toward NIH3T3 fibroblasts, dose response, counter-screen, cell-based, ATP luminescence, mouse fibroblasts (AID 2010).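 Note: cells exposed to compound for about 90 hours before reading.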 The format is functional. In general terms: The purpose of a counterscreen is to sort out artefacts and off-target activity.
Data set [2] is described as follows: inhibitors of intracellular T. cruzi replication, confirmation, NIH3T3 host cells, beta-gal luminescence (AID 2044).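 Note: intracellular parasites grown in NIH/3T3 mouse fibroblasts as host cells; luminescent beta-galactosidase reporter signal from transgenic T. cruzi replicating inside host cells; inhibitors lower the luminescence signal.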 The format is functional, cell-based.
The target of the next data set is Cytochrome P450 2C9 (Homo sapiens, UniProt P11712).
Sequence of Cytochrome P450 2C9 (P11712 whole entry): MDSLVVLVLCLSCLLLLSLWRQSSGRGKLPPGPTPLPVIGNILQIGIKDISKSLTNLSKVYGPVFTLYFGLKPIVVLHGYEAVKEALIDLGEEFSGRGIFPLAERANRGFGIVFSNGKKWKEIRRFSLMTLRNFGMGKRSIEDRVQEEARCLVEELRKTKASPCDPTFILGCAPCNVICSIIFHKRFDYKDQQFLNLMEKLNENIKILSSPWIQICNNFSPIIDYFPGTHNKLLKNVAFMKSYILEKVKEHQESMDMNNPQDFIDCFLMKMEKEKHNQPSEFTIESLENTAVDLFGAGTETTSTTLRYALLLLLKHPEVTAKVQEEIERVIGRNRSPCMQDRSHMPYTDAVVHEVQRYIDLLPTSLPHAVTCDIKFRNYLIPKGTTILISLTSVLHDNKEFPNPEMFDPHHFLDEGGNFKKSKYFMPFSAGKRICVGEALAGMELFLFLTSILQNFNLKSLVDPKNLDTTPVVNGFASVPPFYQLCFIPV
The target in another data set is Cytochrome P450 2D6 (Homo sapiens, UniProt P10635).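 Note: CYP2D6 member of a cytochrome P450 panel assay.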
Sequence of Cytochrome P450 2D6 (P10635 whole entry): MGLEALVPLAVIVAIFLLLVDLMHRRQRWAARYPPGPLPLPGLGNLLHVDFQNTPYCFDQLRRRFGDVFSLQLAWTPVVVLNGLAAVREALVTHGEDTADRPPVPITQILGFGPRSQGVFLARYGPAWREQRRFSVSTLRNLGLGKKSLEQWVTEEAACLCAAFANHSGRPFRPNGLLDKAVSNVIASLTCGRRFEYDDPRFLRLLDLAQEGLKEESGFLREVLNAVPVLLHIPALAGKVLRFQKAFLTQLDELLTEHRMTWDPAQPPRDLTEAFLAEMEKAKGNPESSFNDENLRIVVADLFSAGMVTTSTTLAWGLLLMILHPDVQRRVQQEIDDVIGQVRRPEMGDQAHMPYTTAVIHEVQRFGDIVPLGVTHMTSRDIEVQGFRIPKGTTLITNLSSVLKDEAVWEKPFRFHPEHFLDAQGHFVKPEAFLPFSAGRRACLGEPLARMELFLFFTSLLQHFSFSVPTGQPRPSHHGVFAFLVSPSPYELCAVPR
A further data set deals with Cytochrome P450 2C19 (Homo sapiens, UniProt P33261). The data set can be described thus: Cytochrome panel assay with activity outcomes. Panel member name: p450-cyp2c19 Compounds with AC50 equal or less than 10 uM are considered active. The format is functional.
Sequence of Cytochrome P450 2C19 (P33261 whole entry): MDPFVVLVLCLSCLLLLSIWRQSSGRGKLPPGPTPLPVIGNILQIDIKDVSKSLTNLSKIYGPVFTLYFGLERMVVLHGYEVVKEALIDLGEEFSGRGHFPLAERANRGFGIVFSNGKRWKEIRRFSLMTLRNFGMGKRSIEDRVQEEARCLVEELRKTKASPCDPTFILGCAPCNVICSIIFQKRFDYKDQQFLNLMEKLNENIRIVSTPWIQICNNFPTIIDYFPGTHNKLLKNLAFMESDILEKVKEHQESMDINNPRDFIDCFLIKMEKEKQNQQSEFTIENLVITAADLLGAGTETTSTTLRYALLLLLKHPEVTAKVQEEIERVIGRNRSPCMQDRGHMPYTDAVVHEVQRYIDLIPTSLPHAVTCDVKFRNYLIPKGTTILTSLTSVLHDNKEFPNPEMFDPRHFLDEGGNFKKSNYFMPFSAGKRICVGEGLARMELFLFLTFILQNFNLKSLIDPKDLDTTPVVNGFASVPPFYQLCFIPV
The nature of data set [3]: Luminescence Cell-Based Dose Retest to Confirm Inhibitors of Cancer Stem Cells. [Related pubchem assays (depositor defined):AID2717, AID2721]. Conditions: Homo sapiens. In kind it is functional.
For data set [4], the system named is Streptococcus sp. 'group A'. The data set can be described thus: growth inhibition of control SK(-) GAS strain, dose response, counter-screen for streptokinase expression inhibitor project, luminescence, kanamycin, BacTiterGlo, confirmation (AID 1900). In kind it is functional, organism-based.
Another data set relates to Streptococcus. Nature of the data set: Group A Streptococcus viability loss, dose response, counter-screen for streptokinase expression inhibitor project, luminescence, BacTiterGlo (AID 1915).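 Note: potency for reduction of bacterial viability or growth.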 In kind it is functional, organism-based.

Active and inactive are the calls of the source. Where only a bound is given, the exact number is not on record here.

As a reminder, the EC50 is the concentration at which the effect is half-maximal. As for `CN1CCN(NC(=O)c2cn(-c3ccccc3)nc2-c2cccc(Br)c2)CC1`, the EC50 is 4.99 µM (active) in data set [1] and 2.81 µM (active) in data set [2]. `COc1cccc(CC2(CO)CCCN(Cc3ccc(C)s3)C2)c1` (stereo not given): the values for the EC50 in data set [1] and in data set [2] were > 30 µM (not active) and 0.635 µM (active), respectively. `CCc1ccc(-c2cc(C(F)(F)F)n3nc(C(=O)Nc4c(C)nn(Cc5ccccc5C)c4C)cc3n2)s1`: the EC50 in data set [1] was > 60 µM (inconclusive); in data set [2] it was 2.21 µM (active).

By AC50 is commonly meant the midpoint of the concentration-response curve, whichever way the signal moves. Take `CCCCCc1nnc(NC(=O)C(=O)OCC)s1`: on Cytochrome P450 2C9, the AC50 is 28.2 µM (inconclusive).

In the case of `COc1ccccc1-c1cc(NCc2cccnc2)ncn1`, the AC50 on Cytochrome P450 2D6 is 20 µM (inconclusive).

For the compound `CCc1nc2c(c(SC)nn2-c2ccccc2)c(N)c1C(=O)OC`, the AC50 at Cytochrome P450 2C19 (read-out: AC50) was 25.1 µM (inconclusive); at Cytochrome P450 2C9, 1.12 µM (inconclusive).

Turning to `Cc1ccc(-c2csc(N/N=C/c3ccco3)n2)cc1`, the AC50 at Cytochrome P450 2C9 is 20 µM (inconclusive). As to `Cn1c(=O)n(Cc2ccc(F)cc2)c(=O)c2c1nc1n2CCCN1C1CCCCC1`, the AC50 in data set [3] was 3.33 µM (active).

For the compound `COc1ccc(C2NCCc3c2[nH]c2ccccc32)cc1CN1CCc2cc(OC)c(OC)cc2C1C` (stereo not given), the figures for the EC50 in data set [1] and in data set [2] were > 60 µM (not active) and 1.98 µM (active), respectively. Take `COc1ccc(N2CCN(c3nc(Nc4ccc(C)c(F)c4)nc(N4CCCC4)n3)CC2)cc1`: the EC50 is > 60 µM (not active) in data set [1] and 3.17 µM (active) in data set [2]. Regarding `CC(=O)OC[C@@H]1O[C@@H](O/N=C2/C[C@@H](O)[C@@H](O)[C@@H]3[C@@H]4C(=O)N(C[C@@H]5CCCO5)C(=O)[C@H]4CC[C@@H]23)[C@H](OC(C)=O)[C@H](OC(C)=O)[C@@H]1OC(C)=O`, the AC50 at Cytochrome P450 2D6 is 3.98 µM (inconclusive). In the case of `Cn1c(Sc2ccc(-c3cccnc3)n2C)ccc1-c1cccnc1`, the AC50 at Cytochrome P450 2D6 is 3.16 µM (inconclusive); at Cytochrome P450 2C9, 3.98 µM (inconclusive). `N=C(NOC(=O)COc1ccc2ccccc2c1Br)c1ccncc1`: the values for the EC50 in data set [1] and in data set [2] were > 60 µM (not active) and 2.84 µM (active), respectively. Consider `CCC(=O)Nc1ccc(C(=O)OCC(=O)c2ccc(C)c([N+](=O)[O-])c2)cc1`, for which the results for the AC50 on Cytochrome P450 2D6 and at Cytochrome P450 2C19 (read-out: AC50) were 35.5 µM (inconclusive) and 11.2 µM (inconclusive), respectively. In the case of `Clc1ccccc1CNCC1CCC(CNCc2ccccc2Cl)CC1` (stereo not given), on Cytochrome P450 2C9, the AC50 is 1.26 µM (inconclusive). For `CCOC(=O)C(C(=O)NCc1ccc(C)cc1)c1ncc(C(F)(F)F)cc1Cl` (stereo not given), the AC50 on Cytochrome P450 2C19 (read-out: AC50) was 11.2 µM (inconclusive). On to `Cc1[nH]n(-c2ccccc2)c(=O)c1/C=N/NC(=O)c1ccccc1F`, for which the EC50 in data set [4] is 3.54 µM (active); with Streptococcus it was 6.72 µM (active). Consider `CSc1[nH]c(-c2ccc(C)cc2)nc1S(=O)(=O)c1ccccc1`, for which the AC50 at Cytochrome P450 2C9 is 11.2 µM (inconclusive). Consider `CC1CC2=C(N=C(S)NC2c2cccc(F)c2)/C(=C/c2cccc(F)c2)C1` (stereo not given), for which the results for the EC50 in data set [1] and in data set [2] were > 60 µM (inconclusive) and 1.83 µM (active), respectively. Regarding `FC(F)(F)c1ccc(CNCCc2ccc3c(c2)OCO3)cc1`, the figures for the EC50 in data set [1] and in data set [2] were > 60 µM (not active) and 0.308 µM (active), respectively.

On to `Cc1ccnc(NS(=O)(=O)c2ccc(NC(=O)C3CCCNC3=O)cc2)n1` (stereo not given), for which the half-maximal activity concentration (AC50) result on Cytochrome P450 2C19 was “inconclusive”. On to `CCOc1ccc(CN2CCN(Cc3cc4ccccc4[nH]3)CC2CCO)cc1` (stereo not given), for which the EC50 in data set [1] was > 60 µM (not active); in data set [2], 0.371 µM (active). Turning to `COc1ccccc1CNc1nc(-c2cccc(C#N)c2)nc2ccccc12`, on Cytochrome P450 2C9, the AC50 is 1 µM (inconclusive). Consider `CN(C)c1ncc2nc(CCc3ccccc3)c(=O)n(CCc3ccccc3)c2n1`, for which the AC50 at Cytochrome P450 2D6 is 7.94 µM (inconclusive).

For the compound `COc1ccccc1CCn1c(=O)c(-c2cccc(F)c2)nc2cncnc21`, the AC50 at Cytochrome P450 2D6 was 39.8 µM (inconclusive).

Regarding `CCn1nccc1C(=O)Nc1nc2ccccc2n1CCN1CCCCC1`, on Cytochrome P450 2D6, the AC50 is 4.47 µM (inconclusive). For the compound `O=c1c2ccccc2nc(/C=C/c2ccccc2F)n1-c1ccccc1O`, in data set [3], the AC50 was 2.4 µM (active). On the same count and under the same terms, for `CCOc1cc(/C=C\c2nc(O)nc(O)c2[N+](=O)[O-])ccc1OC(C)CC` (stereo not given) the value was 8.11 µM (active). As for `O=C(CSc1ccc(Cl)cc1)Nc1cccc(NC(=O)c2ccco2)c1`, the AC50 at Cytochrome P450 2C9 was 5.01 µM (inconclusive).

In the case of `CCOc1ccc(-n2cc(-c3ccccc3)c3c(S)ncnc32)cc1`, the EC50 in data set [4] was 6.95 µM (active); in the data set on Streptococcus, 14.9 µM (active). Regarding `CC(=O)c1ccc(-c2ccc([C@H]3[C@H]4C=CC[C@@H](C)[C@@H]4C(=O)N3Cc3ccccc3)c(F)c2)cc1`, the AC50 in data set [3] was 5.57 µM (active). For the compound `O=C(CSc1nnc(-c2ccccn2)n1Cc1ccco1)Nc1ccc2c(c1)OCO2`, the half-maximal activity concentration (AC50) at Cytochrome P450 2C9 was 15.8 µM (inconclusive).

With `C[C@@]12CCC=C[C@H]1[C@H](c1ccc(F)c(/C=C/c3ccccc3)c1)N(Cc1ccccc1)C2=O`, the AC50 in data set [3] is 2.84 µM (active).

Regarding `OCCNc1nc(NCCC2=CCCCC2)nc(N2CCOCC2)n1`, the AC50 at Cytochrome P450 2C19 (read-out: AC50) was 15.8 µM (inconclusive). For the compound `CCOc1ccc(CSC2=NCCN2)cc1Cl`, the 50% effective concentration (EC50) is > 60 µM (not active) in data set [1] and 1.1 µM (active) in data set [2].

`O=c1c(-c2cccs2)nc2cnc(N3CCNCC3)nc2n1-c1ccccc1`: the AC50 on Cytochrome P450 2D6 and at Cytochrome P450 2C9 was 20 µM (inconclusive) in each case. For `Cc1ccc(CCN2CC(C(=O)NC3CCCC3)CC2=O)cc1` (stereo not given), on Cytochrome P450 2C19 (read-out: AC50), the AC50 is 14.1 µM (inconclusive).

As for `Cc1cc(N)c2ccccc2[n+]1CCCCCCCCCCCCCC[n+]1c(C)cc(N)c2ccccc21`, the figures for the AC50 at Cytochrome P450 2C19 (read-out: AC50) and at Cytochrome P450 2C9 were 31.6 µM (inconclusive) and 39.8 µM (inconclusive), respectively.

In the case of `COc1ccccc1C(=O)Nc1ccnn1C1CCN(Cc2cnc(N(C)C)s2)CC1`, the 50% effective concentration (EC50) in data set [1] was > 60 µM (not active); in data set [2], 0.852 µM (active). Take `CCCc1nnc(NC(=O)CCC(=O)NCc2ccccc2OC)s1`: the AC50 at Cytochrome P450 2C19 (read-out: AC50) was 11.2 µM (inconclusive). For the compound `Cc1ccc(NS(=O)(=O)c2cc3c4c(cccc4c2)C(=O)NC3=O)cc1C`, the half-maximal activity concentration (AC50) in data set [3] is 5.69 µM (active).

On to `O=S(=O)(NCC(c1cccnc1)N1CCN(Cc2ccccc2)CC1)c1cc(F)ccc1F` (stereo not given), for which the EC50 is > 60 µM (not active) in data set [1] and 0.677 µM (active) in data set [2]. As to `Nc1nnc(SCC(=O)OCC(=O)NC2CCCCC2)s1`, the AC50 in data set [3] is > 195 µM (inactive). `COc1cc2nc(N3CCN(C(=O)OCc4ccccc4)[C@H](C(=O)NC(C)(C)C)C3)nc(N)c2cc1OC` [L-765314]: at Cytochrome P450 2D6, the AC50 was 31.6 µM (inconclusive). Consider `C[C@@H](C(=O)Nc1ccc2ccccc2c1)[C@@H]1C[C@@]1(C)[C@@H](NC(=O)c1ccncc1Cl)c1ccccc1`, for which the AC50 at Cytochrome P450 2C9 was 39.8 µM (inconclusive). For `CC(C)C12CC[C@@]3(CC[C@H]4[C@@](C)(CCC[C@]4(C)C(=O)O)[C@@H]3C1)[C@@H](CN)C2`, on Cytochrome P450 2C9, the AC50 is 1.26 µM (inconclusive).

With `O=C(NNc1ccccc1Br)C(=O)n1ccc2ccccc21`, in data set [3], the AC50 was 3.46 µM (active). With `Cc1noc(C)c1C(=O)N1CCC2(CCN(Cc3cc(C(F)(F)F)cc(C(F)(F)F)c3)CC2)CC1`, the AC50 at Cytochrome P450 2D6 is 39.8 µM (inconclusive). In the case of `Oc1[nH]c2ccccc2c1N=Nc1ccc(C(F)(F)F)cn1`, the AC50 entry at Cytochrome P450 2C19 is given as “inconclusive”. For the compound `CC(NC(=O)CN=C(S)N(Cc1ccccc1)Cc1cccnc1)c1ccccc1` (stereo not given), the figures for the EC50 in data set [1] and in data set [2] were 10.8 µM (active) and 0.805 µM (active), respectively. Turning to `COc1cc(-c2ccc3c(=O)c4ccccc4n(C)c3c2)cc(OC)c1OC`, the AC50 in data set [3] was 9.62 µM (active). In the case of `Cc1noc(C)c1C(=O)N1CCC[C@@]2(CCN(c3ccccn3)C2)C1`, on Cytochrome P450 2D6, the concentration at half-maximal activity (AC50) was 6.31 µM (inconclusive). As for `CCOc1cc(CNCCCN2CCOCC2)ccc1OCC(=O)NC(C)(C)C`, the EC50 in data set [1] is > 60 µM (not active); in data set [2], 0.87 µM (active). Turning to `COc1cccc2c1C(=N)c1c(O)c3c(c(O)c1C2=O)C[C@](O)(C(C)=O)C[C@@H]3O[C@H]1C[C@H](N)[C@@H](O)[C@H](C)O1`, the AC50 on Cytochrome P450 2D6 was 3.16 µM (inconclusive). Take `CC(C)c1c(CN(C)[C@@H](C)Cc2ccccc2)n(C)n(-c2ccccc2)c1=O` [FAMPROFAZONE]: the AC50 on Cytochrome P450 2D6 is 10 µM (inconclusive); at Cytochrome P450 2C19 (read-out: AC50), 15.8 µM (inconclusive). Consider `O[C@@H](c1cc([C@@]23C[C@H]4CC[C@@H]2C[C@H](C4)C3)nc2c(Cl)cc(Cl)cc12)[C@@H]1CCCCN1`, for which the values for the concentration at half-maximal activity (AC50) at Cytochrome P450 2D6 and at Cytochrome P450 2C19 (read-out: AC50) were 3.16 µM (inconclusive) and 0.794 µM (inconclusive), respectively. On to `Oc1cc(O)c2c(c1)O[C@@H](c1ccc(O)c(O)c1)[C@H](O[C@@]1(c3cc(O)c(O)c(O)c3)Oc3cc(O)cc(O)c3[C@H](O)[C@@H]1O)C2`, for which the results for the AC50 on Cytochrome P450 2C19 (read-out: AC50) and on Cytochrome P450 2C9 were 3.98 µM (inconclusive) and 6.31 µM (inconclusive), respectively. As for `COc1ccc(/C(C)=N/NC(=O)c2ccc(CSc3cccc4cccnc34)cc2)cc1OC`, the AC50 on Cytochrome P450 2C9 was 1.26 µM (inconclusive). As for `C[C@@H]1C[C@H](OC(=O)[C@@H](O)c2ccccc2)CC(C)(C)N1C`, on Cytochrome P450 2D6, the AC50 was 15.8 µM (inconclusive). Turning to `Cc1cccc(Cl)c1OCCCCn1ccnc1`, the results for the EC50 in data set [1] and in data set [2] were > 60 µM (not active) and 1.62 µM (active), respectively.
